Activity calls are given as the source filed them.
Columns and labels:
HeLa = assay: toxicity to human HeLa cells – cell-based, 48 h, plate reader, cherry-picks, cytotoxicity control, dose response (AID 504942); type: functional
[1] = target: T1, Acyl-homoserine lactone acylase PvdQ (Pseudomonas aeruginosa (strain LESB58), UniProt Q9I194); assay: PvdQ acylase enzyme activity blockers – biochemical, fluorescence, plate reader and imaging, cherry-picks, dose response (AID 493231)
T1 sequence (Q9I194 whole entry): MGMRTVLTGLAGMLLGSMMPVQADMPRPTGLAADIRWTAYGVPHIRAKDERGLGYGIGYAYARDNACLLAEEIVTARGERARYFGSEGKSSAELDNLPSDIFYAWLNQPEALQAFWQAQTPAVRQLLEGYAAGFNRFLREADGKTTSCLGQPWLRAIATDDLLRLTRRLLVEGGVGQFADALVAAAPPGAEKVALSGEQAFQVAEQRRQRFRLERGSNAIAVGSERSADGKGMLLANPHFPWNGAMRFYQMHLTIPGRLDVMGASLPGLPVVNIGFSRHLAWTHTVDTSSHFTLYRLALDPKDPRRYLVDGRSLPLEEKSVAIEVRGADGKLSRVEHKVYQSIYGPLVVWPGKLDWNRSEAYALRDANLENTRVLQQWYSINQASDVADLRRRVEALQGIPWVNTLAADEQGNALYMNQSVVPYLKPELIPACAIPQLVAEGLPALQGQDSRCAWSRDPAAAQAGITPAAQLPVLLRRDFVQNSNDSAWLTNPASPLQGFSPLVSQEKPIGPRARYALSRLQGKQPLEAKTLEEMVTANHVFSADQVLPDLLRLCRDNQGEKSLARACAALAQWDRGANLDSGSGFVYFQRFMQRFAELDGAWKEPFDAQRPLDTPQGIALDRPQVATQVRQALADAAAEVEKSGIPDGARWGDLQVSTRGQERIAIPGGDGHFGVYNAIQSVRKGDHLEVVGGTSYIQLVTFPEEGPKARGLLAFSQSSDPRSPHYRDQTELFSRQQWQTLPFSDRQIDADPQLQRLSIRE

[2] = target: T2, DNA dC->dU-editing enzyme APOBEC-3G (Homo sapiens, UniProt Q9HC16); type: functional
T2 sequence (Q9HC16 whole entry): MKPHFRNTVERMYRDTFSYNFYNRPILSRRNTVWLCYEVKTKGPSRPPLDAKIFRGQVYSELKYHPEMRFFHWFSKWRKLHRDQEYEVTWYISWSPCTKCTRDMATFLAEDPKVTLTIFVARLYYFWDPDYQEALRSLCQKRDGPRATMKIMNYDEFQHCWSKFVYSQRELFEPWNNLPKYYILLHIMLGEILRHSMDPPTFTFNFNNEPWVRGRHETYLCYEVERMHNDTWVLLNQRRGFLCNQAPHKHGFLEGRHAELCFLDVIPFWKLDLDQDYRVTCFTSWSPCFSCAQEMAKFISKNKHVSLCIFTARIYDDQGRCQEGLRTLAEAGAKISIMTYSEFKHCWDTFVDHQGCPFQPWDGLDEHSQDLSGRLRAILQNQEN

[3] = target: T2, DNA dC->dU-editing enzyme APOBEC-3G; assay: SAR analysis of small molecule inhibitors of APOBEC3G DNA Deaminase via a fluorescence-based single-stranded DNA deaminase assay - Set 2.; type: functional; settings: read-out: IC50_Mean
[4] = target: T3, DNA dC->dU-editing enzyme APOBEC-3A (Homo sapiens, UniProt P31941); assay: SAR analysis of small molecule inhibitors of APOBEC3A DNA Deaminase via a fluorescence-based single-stranded DNA deaminase assay.; type: functional; settings: read-out: IC50_Mean
T3 sequence (P31941 whole entry): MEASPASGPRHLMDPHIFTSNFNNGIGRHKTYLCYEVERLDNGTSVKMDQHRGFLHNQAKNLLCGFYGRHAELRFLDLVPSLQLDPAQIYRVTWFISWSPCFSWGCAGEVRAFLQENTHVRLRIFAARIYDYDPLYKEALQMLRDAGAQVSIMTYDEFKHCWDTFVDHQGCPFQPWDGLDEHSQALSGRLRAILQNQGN

[5] = target: T3, DNA dC->dU-editing enzyme APOBEC-3A; assay: SAR analysis of small molecule inhibitors of APOBEC3A DNA Deaminase via a fluorescence-based single-stranded DNA deaminase assay - Set 2.; type: functional; settings: read-out: IC50_Mean
[6] = target: T3, DNA dC->dU-editing enzyme APOBEC-3A; assay: Dose Response confirmation of small molecule APOBEC3A DNA Deaminase Inhibitors via a fluorescence-based single-stranded DNA deaminase assay. [Related pubchem assays (depositor defined):AID493011, AID493024]; type: functional
[7] = target: T2, DNA dC->dU-editing enzyme APOBEC-3G; assay: inhibition of APOBEC3G ssDNA deamination – biochemical, fluorescence, single-stranded DNA substrate, SAR follow-up (AID 602136); type: functional; settings: read-out: IC50_Mean
[8] = target: Latent membrane protein 1 (Human herpesvirus 4 (strain B95-8), UniProt P03230); assay: LMP1 TES1 pathway selectivity over dsRED control – imaging, HEK293T, dual-color eGFP/dsRED, cherry-picks, selectivity assay for LMP1 NF-kB inhibitor project, dose response (AID 588398); type: functional, cell-based
Latent membrane protein 1, sequence (P03230 whole entry): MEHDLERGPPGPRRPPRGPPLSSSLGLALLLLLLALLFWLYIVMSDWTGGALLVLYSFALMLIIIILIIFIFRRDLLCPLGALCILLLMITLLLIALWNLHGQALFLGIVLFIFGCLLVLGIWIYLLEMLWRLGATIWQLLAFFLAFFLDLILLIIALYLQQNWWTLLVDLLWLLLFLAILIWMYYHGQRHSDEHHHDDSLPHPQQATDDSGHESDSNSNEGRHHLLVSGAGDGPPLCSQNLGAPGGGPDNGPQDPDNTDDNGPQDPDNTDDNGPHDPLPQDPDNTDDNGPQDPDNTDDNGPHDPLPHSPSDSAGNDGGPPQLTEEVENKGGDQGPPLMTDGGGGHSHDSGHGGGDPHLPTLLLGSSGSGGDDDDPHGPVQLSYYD

[9] = target: Multidrug resistance protein CDR1 (Candida albicans, UniProt P43071); assay: inhibition of Nile Red efflux via Candida CDR1 – S. cerevisiae AD1-8u, singleplex, Cherry Pick1 hits, dose response (AID 588606); type: functional
Multidrug resistance protein CDR1, sequence (P43071 whole entry, looked up): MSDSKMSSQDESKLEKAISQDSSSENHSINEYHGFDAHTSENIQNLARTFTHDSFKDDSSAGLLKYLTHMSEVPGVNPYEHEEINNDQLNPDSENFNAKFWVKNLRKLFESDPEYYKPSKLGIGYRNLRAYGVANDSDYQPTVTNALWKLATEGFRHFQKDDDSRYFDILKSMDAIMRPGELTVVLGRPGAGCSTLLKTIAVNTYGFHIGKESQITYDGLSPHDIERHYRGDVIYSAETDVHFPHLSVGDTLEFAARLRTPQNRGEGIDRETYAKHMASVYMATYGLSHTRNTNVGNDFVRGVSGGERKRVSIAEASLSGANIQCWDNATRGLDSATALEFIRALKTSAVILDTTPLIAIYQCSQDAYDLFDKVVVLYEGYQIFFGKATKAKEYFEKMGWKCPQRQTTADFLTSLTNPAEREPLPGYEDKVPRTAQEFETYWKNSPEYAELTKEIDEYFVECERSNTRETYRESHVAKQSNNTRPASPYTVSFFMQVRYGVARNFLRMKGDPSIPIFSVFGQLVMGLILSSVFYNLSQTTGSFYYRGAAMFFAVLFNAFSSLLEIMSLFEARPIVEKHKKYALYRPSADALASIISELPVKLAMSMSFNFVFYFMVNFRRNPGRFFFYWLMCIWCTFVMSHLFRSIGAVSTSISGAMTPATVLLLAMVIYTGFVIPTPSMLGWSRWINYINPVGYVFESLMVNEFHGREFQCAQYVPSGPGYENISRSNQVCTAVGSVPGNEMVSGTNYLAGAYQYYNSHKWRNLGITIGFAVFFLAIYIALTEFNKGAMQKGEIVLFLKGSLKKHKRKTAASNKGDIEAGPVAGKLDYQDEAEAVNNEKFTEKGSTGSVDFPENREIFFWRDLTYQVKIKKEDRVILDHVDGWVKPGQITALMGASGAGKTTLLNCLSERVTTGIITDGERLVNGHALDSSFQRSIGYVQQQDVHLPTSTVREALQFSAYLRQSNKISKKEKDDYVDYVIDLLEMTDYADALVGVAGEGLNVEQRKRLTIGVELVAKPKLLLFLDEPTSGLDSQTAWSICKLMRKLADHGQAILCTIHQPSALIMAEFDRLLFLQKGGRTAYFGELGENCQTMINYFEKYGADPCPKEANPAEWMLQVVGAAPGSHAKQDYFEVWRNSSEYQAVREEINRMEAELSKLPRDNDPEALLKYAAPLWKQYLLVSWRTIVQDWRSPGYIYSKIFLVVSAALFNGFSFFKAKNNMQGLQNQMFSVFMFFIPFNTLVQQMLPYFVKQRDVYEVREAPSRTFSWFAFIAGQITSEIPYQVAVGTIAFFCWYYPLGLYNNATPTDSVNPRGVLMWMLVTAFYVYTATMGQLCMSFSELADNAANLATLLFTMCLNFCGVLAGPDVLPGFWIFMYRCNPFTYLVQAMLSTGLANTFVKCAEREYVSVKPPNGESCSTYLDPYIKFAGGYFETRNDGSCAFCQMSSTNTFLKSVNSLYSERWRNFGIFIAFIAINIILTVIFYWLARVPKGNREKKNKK

Candida albicans [10] = assay: antifungal activity against resistant Candida strain – CaCi-8, fluconazole, Alamar Blue, dry powder, dose response (AID 488807); type: functional, organism-based
Candida albicans [11] = assay: resistant Candida growth with fluconazole co-treatment – CaCi-8 strain, Alamar Blue, dry powder, set 2, dose response (AID 488909); type: functional, organism-based
Candida albicans [12] = assay: C. albicans growth inhibition with fluconazole – CaCi-2 strain, Alamar Blue, dry powder, set 4, dose response (AID 488943); type: functional, organism-based
Candida albicans [13] = assay: Candida growth reduction in fluconazole presence – CaCi-2 strain, Alamar Blue, dry powder, set 2, antifungal resistance reversal project, dose response (AID 488930); type: functional, organism-based

Compound: N#CC(c1ccccc1)c1cccc(Cl)n1 (centres undefined)
- AC50 (HeLa): > 380 µM (inactive)
- AC50 [1]: 1.1 µM (active)

Compound: CCC(=O)Nc1cccc(-c2nnc(SCC(=O)NCc3ccco3)n2C)c1
- IC50 [2]: 5.36 µM (active)
- IC50 [3]: 0.695 µM (active)
- IC50 [4]: 1.93 µM (active)
- IC50 [5]: 4.37 µM (active)
- IC50 [6]: 1.07 µM (active)
- IC50 [7]: 1.5 µM (active)

Compound: O=C1CN(C(=O)c2ccc(F)c(S(=O)(=O)N3CCOCC3)c2)c2ccccc2N1
- AC50 [8]: 48.3 µM (active)

Compound: COc1ccc(-c2sc3cc4c(cc3c2-c2ccc(OCCN3CCCCC3)cc2)OCO4)cc1
- EC50 [9]: 0.062 µM (active)

Compound: O=C(c1ccc(Cl)cc1)N1CCN(c2ccccn2)CC1
- AC50 (Candida albicans [10]): 0.64 µM (active)
- AC50 (Candida albicans [11]): 28.1 µM (active)
- AC50 (Candida albicans [12]): 24.5 µM (active)
- AC50 (Candida albicans [13]): 12 µM (active)

— ChEMBL document CHEMBL1201862, “PubChem BioAssay data set” (2004)
